Several values for one entry are separate records, joined by “and”; a condition that tells them apart may be missing. Identical values can stand only once. ± gives the expanded uncertainty stated by the source.
What was measured:
[1] = 298.15 K; 101.33 kPa; Liquid; Vibrating tube method
[2] = refractive index (Na D-line) (dimensionless); conditions: 298.15 K; 101.33 kPa; Liquid; Standard Abbe refractometry
[3] = xn = mol fraction of the nth substance listed; conditions: 298.15 K, 101 kPa, Liquid, Vibrating tube method

Row | Structure (SMILES) | mass density [1] [kg/m3] | refractive index [2] | also measured
1 | CCCCn1cc[n+](C)c1.COS(=O)(=O)[O-] [1-butyl-3-methylimidazolium methyl sulfate] | 1212.59 ± 0.41 | 1.47792 ± 0.00037 | 
2 | CCCCn1cc[n+](C)c1.COS(=O)(=O)[O-] [1-butyl-3-methylimidazolium methyl sulfate] + C1CCCCC1 |  |  | mass density ([3]; x2 = 0.039): 1204.53 ± 1.3 kg/m3
3 | CCCCn1cc[n+](C)c1.COS(=O)(=O)[O-] [1-butyl-3-methylimidazolium methyl sulfate] + CC1CCCCC1 |  |  | mass density ([3]; x2 = 0.028): 1207.3 ± 1.3 kg/m3
4 | CCCCn1cc[n+](C)c1.COS(=O)(=O)[O-] [1-butyl-3-methylimidazolium methyl sulfate] + Cc1ccccc1 |  |  | mass density ([3]; x2 = 0.328): 1151 ± 1.2 kg/m3 and 1153.43 ± 1.2 kg/m3
5 | C1CCCCC1 [cyclohexane] | 773.8 ± 0.24 | 1.4236 ± 0.00037 | 
6 | C1=CCCCC1 [cyclohexene] | 805.69 ± 0.24 | 1.44378 ± 0.00037 | 
7 | C1=CCCCC1 [cyclohexene] + CCCCn1cc[n+](C)c1.COS(=O)(=O)[O-] |  |  | mass density ([3]; x1 = 0.071): 1201.85 ± 1.9 kg/m3
8 | C1CCCCCCC1 [cyclooctane] | 831.47 ± 0.24 | 1.45598 ± 0.00037 | 
9 | C1CCCCCCC1 [cyclooctane] + CCCCn1cc[n+](C)c1.COS(=O)(=O)[O-] |  |  | mass density ([3]; x1 = 0.02): 1207.63 ± 1.3 kg/m3
10 | CC1CCCCC1 [methylcyclohexane] | 765.02 ± 0.24 | 1.42062 ± 0.00037 | 
11 | Cc1ccccc1 [toluene] | 862.17 ± 0.1 | 1.49399 ± 0.00031 | 

— the NIST ThermoML archive (doi:10.1016/j.jct.2010.12.012)
